# Experimental data reported in US7683051B2, “Crystalline polymorph of bazedoxifene acetate” (Wyeth, priority 2004, dated 2010).
# What was measured:
# uterine response = settings: preclinical models of uterine stimulation; cited from earlier work
# [1] = tested on: MCF-7 cell line (human breast cancer cell line); settings: MCF-7 human breast cancer cell line; cited from earlier work
# [2] = tested on: ovariectomized rat model of osteopenia; settings: cited from earlier work
# physchem = settings: EtOH/EtOAc/Tol, organic solvent or mixture, Solubility-Org (EtOH/EtOAc/Tol)
# [3] = acetic acid
# [4] = acetic acid; remark: listed apart in the source
structure (smiles),measurement,setting,value
"Cc1c(-c2ccc(O)cc2)n(Cc2ccc(OCCN3CCCCCC3)cc2)c2ccc(O)cc12 [bazedoxifene acetate, 1-[4-(2-azepan-1-yl-ethoxy)-benzyl]-2-(4-hydroxy-phenyl)-3-methyl-1H-indol-5-ol acetic acid]",stimulation of uterine response,uterine response,little or no stimulation of uterine response
same,estrogen agonist/antagonist behaviour in MCF-7 cells,[1],behaves as an estrogen antagonist
same,effect on bone loss,[2],estrogen agonist-like effect in preventing bone loss
same,effect on cholesterol,[2],reducing cholesterol
"Cc1c(-c2ccc(O)cc2)n(Cc2ccc(OCCN3CCCCCC3)cc2)c2ccc(O)cc12 [Form A, 1-[4-(2-azepan-1-yl-ethoxy)-benzyl]-2-(4-hydroxy-phenyl)-3-methyl-1H-indol-5-ol acetic acid]",solubility,physchem,24.5 mg/mL
same,Solubility-Water,[3],0.49 mg/mL
"Cc1c(-c2ccc(O)cc2)n(Cc2ccc(OCCN3CCCCCC3)cc2)c2ccc(O)cc12 [Form B, 1-[4-(2-azepan-1-yl-ethoxy)-benzyl]-2-(4-hydroxy-phenyl)-3-methyl-1H-indol-5-ol acetic acid]",Solubility-Org (EtOH/EtOAc/Tol),[4],12.4 mg/mL
same,Solubility-Water,[3],0.23 mg/mL
